US9000033B2, “Composition for improving skin condition and appearance” (Arch Personal Care Products, L.P., priority 2008, dated 2015)

Tests used:
[1] = tested on: COL1A1 (collagen 1A1 gene); experiment: Human gene microarray, Type 1A1 Collagen gene expression in normal human dermal fibroblasts; format: cell-based; details: for expression levels of collagen 1A1 gene: an appropriate amount
Method: (§1) Normal human dermal fibroblasts were grown in culture flasks until confluent using appropriate culture conditions. […] A separate flask of cells was treated with culture media alone and acted as an untreated control. After applying the test material the cells the cells were incubated for 24 hours at 37±2° C. and 5±1% CO2. At the end of the incubation period the culture media was removed via aspiration and the cells were washed once with cold phosphate buffered saline. After removing the wash the cells they were lysed by adding 700 μl of guanidinium thiocyanate lysis solution. The cell lysate was stored at −75° C. until the RNA extraction process could be completed (see below).
(§2) To the cell lysates prepared above, an equal volume of 64% ethanol was added and the tubes were vortexed. After combining, up to 700 μl of the mixture was transferred to a glass fiber filter cartridge, and the cartridge was loaded into a 1.5 ml collection tube and the cartridge was centrifuged for 1 minute at 14,000 RPM. The flow through was discarded and any remaining mixture was loaded into the filter cartridge and the centrifugation process was repeated until all of the mixture had been processed. The filter was then washed to remove any residual cellular debris from the RNA bound to the glass fibers by subsequently applying 700 μl of wash solution 1 (1 time) and 500 μl of wash solution 2 (2 times) to the filter cartridge and centrifuging at 14,000 RPM for 1 minute to pass each wash through the cartridge. After each wash the flowthrough was discarded. After the final wash one final spin was performed without wash solution to remove any residual wash solution in the filter cartridge. The RNA bound to the glass fibers within the cartridge was eluted by applying 30 μl of Tris-EDTA buffer (10 mM Tris-HCl, 1 mM EDTA, preheated to 70-80° C.) to the cartridge and centrifuging the cartridge in a new collection tube at 14,000 RPM for one minute. The elution process was repeated with an additional 30 μl of preheated TE buffer. After the RNA was eluted its concentration was quantified using a Ribogreen assay.
(§3) mRNA Amplification (Ambion MessageAmnp aRNA kit) First Strand cDNA Synthesis: To start the first strand synthesis, 5 μg of total RNA for each sample was added to 600 μl PCR tubes and the total volume of liquid in the tube was adjusted to 12 μl with DEPC H2O. To each tube, 1 μl of T7 Oligo(dT) primer was added and the tube was incubated at 70±2° C. for 10 minutes to denature the RNA and then placed on ice to allow the primer to anneal to the poly A ends of the mRNA. After cooling 2 μl of 10× first strand buffer, 1 μl of RNAse inhibitor and 4 μl of dNTP Mix were added to each tube, and each tube was placed at 42° C. 1 μl of Reverse Transcriptase was added and the tubes were heated and maintained at 42±2° C. for 2 hours. […]
(§4) Second Strand Synthesis and cDNA Purification: For the synthesis of the second strand of cDNA the following items were added to the tubes above (in this order): 63 μl DEPC H2O, 10 μl 10× second strand buffer, 4 μl dNTP mix, 2 μl DNA Polymerase and 1 μl of RNAse H. The tube was mixed and then incubated at 16±2° C. for 2 hours. Towards the end of the 2 hour incubation a sufficient quantity of DEPC H2O was warmed to 50±2° C. and a cDNA purification filter cartridge was equilibrated with 50 μl of cDNA binding buffer (one cartridge per sample) for at least 5 minutes. […]

[2] = tested on: ELN (elastin gene); experiment: Human gene microarray, Elastin gene expression in normal human dermal fibroblasts; format: cell-based; details: for expression levels of elastin gene: an appropriate amount
Method: as §1, §2, §3, §4

[3] = concentration from 0.0001 to 0.05%
[4] = normal human dermal fibroblasts, 0.05%
[5] = normal human dermal fibroblasts, 0.05% pomiferin, 24 hours, fluorescence intensity, Cy5 (treated) channel

CC(C)=CCc1c2c(c3occ(-c4ccc(O)cc4)c(=O)c3c1O)C=CC(C)(C)O2 [osajin]
expression levels of collagen 1A1 gene [1]: significantly increase | expression levels of elastin gene [2]: significantly increase

CC(C)=CCc1c2c(c3occ(-c4ccc(O)c(O)c4)c(=O)c3c1O)C=CC(C)(C)O2 [pomiferin]
expression levels of collagen 1A1 gene [1]: significantly increase | increasing collagen 1A1 gene expression [1, 3]: equally effective | collagen 1A1 gene expression compared to untreated cells [1, 4]: statistically significant increase | F635 Median, COL1A1 [1, 5]: 38576 | expression levels of elastin gene [2]: significantly increase | increasing elastin gene expression [2, 3]: equally effective | elastin gene expression compared to untreated cells [2, 4]: statistically significant increase | F635 Median, ELN [2, 5]: 3010
